Assay results reported in the NIST ThermoML archive (doi:10.1021/acs.jced.7b00106).

Details: Hot wire method

FC(F)(F)/C=C/Cl [(E)-1-chloro-3,3,3-trifluoroprop-1-ene]
Details	thermal conductivity [W/m/K]
402.34 K, 675 kPa, Fluid (supercritical or subcritical phases)	0.01919
402.35 K, 18638 kPa, Liquid	0.06815
402.35 K, 18644 kPa, Liquid	0.06814
402.36 K, 4694 kPa, Liquid	0.05768
402.36 K, 4699 kPa, Liquid	0.05769
402.37 K, 9102 kPa, Liquid	0.06154
402.37 K, 9105 kPa, Liquid	0.06157
402.37 K, 33596 kPa, Liquid	0.07616
402.38 K, 1202 kPa, Fluid (supercritical or subcritical phases)	0.01949
402.38 K, 1203 kPa, Fluid (supercritical or subcritical phases)	0.0195
402.38 K, 1623 kPa, Fluid (supercritical or subcritical phases)	0.02057
402.38 K, 1624 kPa, Fluid (supercritical or subcritical phases)	0.02063
402.38 K, 33572 kPa, Liquid	0.0761
402.41 K, 3571 kPa, Liquid	0.05649
402.41 K, 3575 kPa, Liquid	0.05649
402.42 K, 1105 kPa, Fluid (supercritical or subcritical phases)	0.01939
402.43 K, 1105 kPa, Fluid (supercritical or subcritical phases)	0.01943
402.43 K, 7089 kPa, Liquid	0.05988
402.44 K, 2633 kPa, Liquid	0.05536
402.44 K, 2641 kPa, Liquid	0.05542
402.44 K, 7097 kPa, Liquid	0.05991
402.44 K, 15789 kPa, Liquid	0.06632
402.44 K, 15790 kPa, Liquid	0.06635
402.44 K, 24987 kPa, Liquid	0.07171
402.44 K, 24992 kPa, Liquid	0.07169
402.46 K, 1000 kPa, Fluid (supercritical or subcritical phases)	0.01927
402.47 K, 1001 kPa, Fluid (supercritical or subcritical phases)	0.01932
402.47 K, 1515 kPa, Fluid (supercritical or subcritical phases)	0.02021
402.47 K, 1844 kPa, Liquid	0.0544
402.47 K, 1854 kPa, Liquid	0.05447
402.48 K, 1515 kPa, Fluid (supercritical or subcritical phases)	0.02026
402.5 K, 848 kPa, Fluid (supercritical or subcritical phases)	0.01923
402.5 K, 13367 kPa, Liquid	0.06472
402.5 K, 13371 kPa, Liquid	0.0647
402.51 K, 846 kPa, Fluid (supercritical or subcritical phases)	0.01926
402.52 K, 1406 kPa, Fluid (supercritical or subcritical phases)	0.01993
402.52 K, 1407 kPa, Fluid (supercritical or subcritical phases)	0.01994
402.53 K, 21658 kPa, Liquid	0.06987
402.54 K, 21643 kPa, Liquid	0.06986
402.56 K, 28722 kPa, Liquid	0.07362
402.57 K, 5983 kPa, Liquid	0.05888
402.57 K, 5985 kPa, Liquid	0.05888
402.57 K, 11101 kPa, Liquid	0.06313
402.57 K, 28741 kPa, Liquid	0.07367
402.58 K, 1306 kPa, Fluid (supercritical or subcritical phases)	0.01976
402.58 K, 1307 kPa, Fluid (supercritical or subcritical phases)	0.01973
402.58 K, 11088 kPa, Liquid	0.06313
402.6 K, 18623 kPa, Liquid	0.06809
402.61 K, 676 kPa, Fluid (supercritical or subcritical phases)	0.01925
402.61 K, 4688 kPa, Liquid	0.05758
402.61 K, 18624 kPa, Liquid	0.06809
402.61 K, 33585 kPa, Liquid	0.07607
402.62 K, 4693 kPa, Liquid	0.05763
402.62 K, 33568 kPa, Liquid	0.07592
402.63 K, 1203 kPa, Fluid (supercritical or subcritical phases)	0.01956
402.63 K, 9088 kPa, Liquid	0.06152
402.63 K, 9104 kPa, Liquid	0.06148
402.65 K, 1203 kPa, Fluid (supercritical or subcritical phases)	0.01959
402.66 K, 3574 kPa, Liquid	0.05645
402.66 K, 3575 kPa, Liquid	0.05645
402.69 K, 1104 kPa, Fluid (supercritical or subcritical phases)	0.01945
402.69 K, 1106 kPa, Fluid (supercritical or subcritical phases)	0.01948
402.69 K, 7089 kPa, Liquid	0.05985
402.69 K, 15783 kPa, Liquid	0.06633
402.69 K, 15792 kPa, Liquid	0.06633
402.69 K, 24993 kPa, Liquid	0.07169
402.7 K, 2638 kPa, Liquid	0.0554
402.7 K, 7091 kPa, Liquid	0.0599
402.7 K, 25001 kPa, Liquid	0.07172
402.71 K, 2639 kPa, Liquid	0.05542
402.74 K, 1850 kPa, Liquid	0.05446
402.75 K, 1000 kPa, Fluid (supercritical or subcritical phases)	0.01939
402.75 K, 1852 kPa, Liquid	0.05457
402.76 K, 13350 kPa, Liquid	0.06467
402.76 K, 13371 kPa, Liquid	0.06472
402.78 K, 848 kPa, Fluid (supercritical or subcritical phases)	0.01932
402.79 K, 846 kPa, Fluid (supercritical or subcritical phases)	0.01931
402.79 K, 21633 kPa, Liquid	0.06986
402.8 K, 21636 kPa, Liquid	0.06986
402.82 K, 28727 kPa, Liquid	0.07362
402.84 K, 5979 kPa, Liquid	0.05886
402.84 K, 5987 kPa, Liquid	0.05889
402.84 K, 11088 kPa, Liquid	0.0631
402.84 K, 28733 kPa, Liquid	0.07365
402.85 K, 11093 kPa, Liquid	0.06312
402.86 K, 18624 kPa, Liquid	0.06805
402.87 K, 18643 kPa, Liquid	0.06812
402.89 K, 4691 kPa, Liquid	0.05763
402.89 K, 4699 kPa, Liquid	0.05767
402.9 K, 9108 kPa, Liquid	0.06161
402.9 K, 33571 kPa, Liquid	0.07603
402.91 K, 674 kPa, Fluid (supercritical or subcritical phases)	0.01931
402.91 K, 9096 kPa, Liquid	0.0616
402.91 K, 33586 kPa, Liquid	0.07604
402.93 K, 3567 kPa, Liquid	0.05645
402.94 K, 3574 kPa, Liquid	0.05661
402.96 K, 15767 kPa, Liquid	0.06628
402.96 K, 24990 kPa, Liquid	0.07167
402.96 K, 25002 kPa, Liquid	0.07171
402.97 K, 7096 kPa, Liquid	0.05991
402.97 K, 15769 kPa, Liquid	0.0663
402.98 K, 2633 kPa, Liquid	0.05541
402.98 K, 7087 kPa, Liquid	0.05989
402.99 K, 2643 kPa, Liquid	0.05551
403 K, 1856 kPa, Liquid	0.0546
403.01 K, 1850 kPa, Liquid	0.05458
403.03 K, 21637 kPa, Liquid	0.06984
403.04 K, 13347 kPa, Liquid	0.06471
403.04 K, 13368 kPa, Liquid	0.06474
403.07 K, 21655 kPa, Liquid	0.06986
403.09 K, 28719 kPa, Liquid	0.0736
403.1 K, 28719 kPa, Liquid	0.07336
403.11 K, 5980 kPa, Liquid	0.05886
403.12 K, 5983 kPa, Liquid	0.05891
403.12 K, 11089 kPa, Liquid	0.06307
403.12 K, 11091 kPa, Liquid	0.06308
403.14 K, 18630 kPa, Liquid	0.06809
403.15 K, 18626 kPa, Liquid	0.06808
403.17 K, 4697 kPa, Liquid	0.05766
403.18 K, 4698 kPa, Liquid	0.05772
403.18 K, 9094 kPa, Liquid	0.06153
403.19 K, 9095 kPa, Liquid	0.06162
403.19 K, 33557 kPa, Liquid	0.076
403.2 K, 33576 kPa, Liquid	0.07601
403.23 K, 3569 kPa, Liquid	0.0565
403.24 K, 3565 kPa, Liquid	0.05654
403.24 K, 15779 kPa, Liquid	0.06628
403.24 K, 25000 kPa, Liquid	0.07167
403.25 K, 15789 kPa, Liquid	0.06631
403.25 K, 24985 kPa, Liquid	0.07165
403.27 K, 2641 kPa, Liquid	0.05557
403.27 K, 7090 kPa, Liquid	0.05988
403.27 K, 7094 kPa, Liquid	0.05994
403.28 K, 2638 kPa, Liquid	0.05558
403.3 K, 1852 kPa, Liquid	0.05468
403.31 K, 1856 kPa, Liquid	0.05476
403.32 K, 13355 kPa, Liquid	0.06468
403.33 K, 13350 kPa, Liquid	0.06467
403.33 K, 21631 kPa, Liquid	0.0698
403.33 K, 21643 kPa, Liquid	0.06984
403.37 K, 28710 kPa, Liquid	0.07356
403.37 K, 28735 kPa, Liquid	0.0736
403.39 K, 11081 kPa, Liquid	0.06304
403.4 K, 5980 kPa, Liquid	0.05891
403.4 K, 11095 kPa, Liquid	0.06309
